Data set [1] relates to ACh levels in the rat PFC. The data set can be described thus: Prefrontal cortex acetylcholine levels via microdialysis, rat. It is filed as in vivo. The source says:
Adult male Sprague-Dawley rats (280–360 g) were obtained from Charles-River Laboratories, Raleigh, NC and male C57BL/6J DRD1a WT and D1 DA receptor knockout mice (DRD1a-905781) were obtained from The Jackson Laboratories (Bar Harbor, ME). Animals were housed on a 12-h light/dark cycle with free access to food and water and allowed to acclimate for at least 5 d after arrival. Aseptic technique was used during the surgical procedure in order to prevent infection. On the day of the procedure animals were anesthetized with isoflurane (4%) and their heads shaved. The animals were then placed into a Kopf stereotaxic frame, the surgical area disinfected by swabbing with Provodine solution, and the area isolated with a sterile surgical drape. Anesthesia was maintained with isoflurane (2.5%–3%) delivered through a nose cone using a Univentor 400 anesthesia unit. Animals were given a 0.1 ml subcutaneous (s.c.) injection of Metacam (NSAID, meloxicam, 5 mg/ml, Boehringer Ingelheim) as a post-operative analgesic. Marcaine (bupivacaine, 0.5%, Hospira, Lake Forest, IL), a long acting local anesthetic, was administered s.c. at the surgical area to minimize pain and discomfort. […]
For conventional analysis, ACh was analyzed by high performance liquid chromatography (HPLC) utilizing a modification of the BAS ACh-choline assay kit (BAS part # MF-8910). […]

Data set [2] can be described thus: Plasma exposure (PK), rat. Type of data set: in vivo. The note with it: 10 mg/kg SC, 1.5 h. On the procedure:
Across the set of experiments, PK was either collected from satellite animals or in separate, dedicated studies. In addition to plasma PK, exposures were obtained in brain tissue for rat and mouse, and plasma protein binding and brain tissue binding were measured. Using the measured exposures, partitioning, and binding parameters, and the […]

Data set [3] deals with ketamine-induced working memory deficits. The data set can be described thus: Spatial delayed response (SDR) task in the nonhuman primate. It is filed as in vivo, rhesus monkeys. The source says: This study was designed to test the hypothesis that PF-6142 would provide significant protection versus the ketamine-induced working memory deficits in nonhuman primates.
Rhesus monkeys were trained to stability on a variable SDR task in a sound-attenuated Wisconsin General Testing Apparatus ([Roberts et al., 2010]). Briefly, subjects observe while the investigator baiting one of two to seven wells with a highly preferred food reward and then covers all the wells with identical square plaques. An opaque screen is then lowered for one of five variable delays, which are pseudorandomized across trials within a session. Thus, delays are defined as 0–4 N, where “N” is a value that is animal dependent and ranges from 1 to 10 s depending upon the difficulty level of the task at which an animal reaches the criterion of stable performance. At the end of the delay period, the opaque screen is raised, and the animal must select the well that had been baited to obtain a reward. Each test session consists of 20 trials wherein both the baited well and delay length are pseudorandomized across trials. Before study initiation, all subjects were required to reach stability over a period of 10 consecutive test sessions, where stability was defined as an average of 65–75% correct. Stability was attained by varying the number of wells and the delay value for each animal. Subjects were originally trained on a two-well board with an N value of 1. […] Once stability was attained for a given number of wells and N value, that combination was kept constant throughout the course of the study ([Roberts et al., 2010]). The range of stable performance for the 10 subjects was two to five wells and an N value of 1–7 s (median, four-well testing board, N = 5 s). Data were transformed using logarithmic function [log(x+5)] to improve normality and analyzed using ANOVA.
Subjects received pretreatment with vehicle (sterile saline solution) or PF-6142 (0.0015, 0.015, 0.15 mg/kg, s.c.) 4 h before cognitive testing. They then received an intramuscular injection of either vehicle (sterile saline) or ketamine (0.7–1.7 mg/kg; Fort Dodge Co.) 0.25 h before cognitive testing. […] Thus, for the present study, one monkey received 0.7 mg/kg, seven monkeys received 1.0 mg/kg, and two monkeys received 1.7 mg/kg of ketamine. The vehicle/PF-6142 and vehicle/ketamine treatments were assigned using a randomized Latin square design with a total of eight conditions. Except for the vehicle/vehicle condition, there was a minimum 2-week washout period between all acute challenges during which time animals were required to “restabilize” to baseline performance levels, which was defined as at least three consecutive testing sessions wherein cognitive performance ranged between 65% and 75% correct.

Take `Cc1cc(Oc2nccc3occc23)ccc1-c1c(C)ncc2nccn12` [PF-6142]: the “PF-6142 mediated increase in cortical ACh after repeated dosing (AUC 75-180 min, day 5)” value in data set [1] (10 mg/kg SC for five consecutive days) was “maintained”. Further, the “cortical ACh levels, time course” value in data set [1] (PF-6142 10 mg/kg SC acute on day 5 after subchronic vehicle, vs 5 d vehicle) is given as “increased cortical ACh levels”. Also, in data set [2], the PF-6142 plasma concentration worked out at 1260 ng/mL. Also, the “percent correct on the SDR task after pretreatment + ketamine (range over doses)” value in data set [3] (PF-6142 0.0015-0.15 mg/kg s.c. 4 h before testing) is given as 42.5–52.1%. Further, the “improvement of performance vs ketamine” value in data set [3] (PF-6142 0.0015-0.15 mg/kg s.c., all doses) is recorded as “more than 10 % correct”. Moreover, the “working memory performance under normal conditions (pretreatment followed by placebo)” value in data set [3] (PF-6142 without ketamine) is “no effect on its own”.

The values are drawn from paper PMC7358525, “Characterization of PF-6142, a Novel, Non-Catecholamine Dopamine Receptor D1 Agonist, in Murine and Nonhuman Primate Models of Dopaminergic Activation” (Frontiers in Pharmacology, 2020).
